According to ChEMBL document CHEMBL1201862, “PubChem BioAssay data set” (2004):
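Growth conditions: 96-well plates. Treatment: test compound, 48 hours, 5 concentrations. Analysis: linear interpolation between bracketing concentrations; unreached endpoints set to highest concentration. Abbreviation: GI50, concentration required for 50% inhibition of growth.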 Calls of active or inactive are those of the source. Rule as the data show it: active = GI50 up to about 1.1 µM and inactive = higher.

Assays:
Test in all cases: growth of human tumour cells (NCI), 48 h
[1] = tested on: 786-0
[2] = tested on: A498
[3] = tested on: A549
[4] = tested on: ACHN
[5] = tested on: BT-549
[6] = tested on: CAKI-1
[7] = tested on: CCRF-CEM
[8] = tested on: DU-145
[9] = tested on: HCC 2998
[10] = tested on: HCT-116
[11] = tested on: HCT-15
[12] = tested on: HL-60
[13] = tested on: HOP-62
[14] = tested on: HOP-92
[15] = tested on: HT-29
[16] = tested on: Hs-578T
[17] = tested on: IGROV-1
[18] = tested on: K562
[19] = tested on: KM12
[20] = tested on: LOX IMVI
[21] = tested on: M14
[22] = tested on: MCF7
[23] = tested on: MDA-MB-231
[24] = tested on: MDA-MB-435
[25] = tested on: MDA-N
[26] = tested on: MOLT-4
[27] = tested on: Malme-3M
[28] = tested on: NCI-H226
[29] = tested on: NCI-H23
[30] = tested on: NCI-H460
[31] = tested on: NCI-H522
[32] = tested on: NCI/ADR-RES
[33] = tested on: OVCAR-3
[34] = tested on: OVCAR-5
[35] = tested on: OVCAR-8
[36] = tested on: PC-3
[37] = tested on: RPMI-8226
[38] = tested on: SF-268
[39] = tested on: SF-295
[40] = tested on: SF-539
[41] = tested on: SK-MEL-28
[42] = tested on: SK-MEL-5
[43] = tested on: SN12C
[44] = tested on: SNB-19
[45] = tested on: SR
[46] = tested on: SW-620
[47] = tested on: T47D
[48] = tested on: TK-10
[49] = tested on: U-251
[50] = tested on: UACC-257
[51] = tested on: UO-31
[52] = tested on: COLO 205
[53] = tested on: EKVX
[54] = tested on: OVCAR-4
[55] = tested on: SK-MEL-2
[56] = tested on: SK-OV-3
[57] = tested on: SNB-75
[58] = tested on: UACC-62
[59] = tested on: RXF 393

O=C1CC(C(O)CO)CC(=O)N1 (stereo unspecified)
GI50 [1]: > 100 µM (inactive)
GI50 [2]: > 100 µM (inactive)
GI50 [3]: > 100 µM (inactive)
GI50 [4]: > 100 µM (inactive)
GI50 [5]: > 100 µM (inactive)
GI50 [6]: > 100 µM (inactive)
GI50 [7]: > 100 µM (inactive)
GI50 [8]: > 100 µM (inactive)
GI50 [9]: > 100 µM (inactive)
GI50 [10]: > 100 µM (inactive)
GI50 [11]: > 100 µM
GI50 [12]: > 100 µM (inactive)
GI50 [13]: > 100 µM (inactive)
GI50 [14]: > 100 µM (inactive)
GI50 [15]: > 100 µM (inactive)
GI50 [16]: > 100 µM (inactive)
GI50 [17]: > 100 µM (inactive)
GI50 [18]: > 100 µM (inactive)
GI50 [19]: > 100 µM (inactive)
GI50 [20]: > 100 µM (inactive)
GI50 [21]: > 100 µM (inactive)
GI50 [22]: > 100 µM (inactive)
GI50 [23]: > 100 µM (inactive)
GI50 [24]: > 100 µM (inactive)
GI50 [25]: > 100 µM (inactive)
GI50 [26]: > 10 µM (inactive)
GI50 [27]: > 100 µM (inactive)
GI50 [28]: > 100 µM (inactive)
GI50 [29]: > 100 µM (inactive)
GI50 [30]: > 100 µM (inactive)
GI50 [31]: > 100 µM (inactive)
GI50 [32]: > 100 µM (inactive)
GI50 [33]: > 100 µM (inactive)
GI50 [34]: > 100 µM (inactive)
GI50 [35]: > 100 µM (inactive)
GI50 [36]: > 100 µM (inactive)
GI50 [37]: > 100 µM (inactive)
GI50 [38]: > 100 µM (inactive)
GI50 [39]: > 100 µM (inactive)
GI50 [40]: > 100 µM (inactive)
GI50 [41]: > 100 µM (inactive)
GI50 [42]: > 100 µM (inactive)
GI50 [43]: > 100 µM (inactive)
GI50 [44]: > 100 µM (inactive)
GI50 [45]: > 100 µM (inactive)
GI50 [46]: > 100 µM (inactive)
GI50 [47]: > 100 µM (inactive)
GI50 [48]: > 100 µM (inactive)
GI50 [49]: > 100 µM (inactive)
GI50 [50]: > 100 µM (inactive)
GI50 [51]: > 100 µM (inactive)

Fc1ccc(Nc2nc(Cl)c3nc[nH]c3n2)cc1Cl
GI50 [1]: 86.9 µM (inactive)
GI50 [2]: > 100 µM (inactive)
GI50 [3]: > 100 µM (inactive)
GI50 [4]: 34.9 µM (inactive)
GI50 [5]: > 100 µM (inactive)
GI50 [6]: 6.97 µM (inactive)
GI50 [7]: > 100 µM (inactive)
GI50 [52]: > 100 µM (inactive)
GI50 [8]: 87.3 µM (inactive)
GI50 [53]: 67.8 µM (inactive)
GI50 [9]: 32.9 µM (inactive)
GI50 [10]: > 100 µM (inactive)
GI50 [11]: > 100 µM
GI50 [12]: > 100 µM (inactive)
GI50 [13]: 61.8 µM (inactive)
GI50 [14]: > 100 µM (inactive)
GI50 [15]: > 100 µM (inactive)
GI50 [16]: 39.9 µM (inactive)
GI50 [17]: 84.9 µM (inactive)
GI50 [19]: > 100 µM (inactive)
GI50 [20]: 75.3 µM (inactive)
GI50 [21]: > 100 µM (inactive)
GI50 [22]: 98.9 µM (inactive)
GI50 [23]: > 100 µM (inactive)
GI50 [24]: > 100 µM (inactive)
GI50 [25]: > 100 µM (inactive)
GI50 [26]: > 100 µM (inactive)
GI50 [27]: > 100 µM (inactive)
GI50 [28]: > 100 µM (inactive)
GI50 [29]: 79.6 µM (inactive)
GI50 [30]: 58.9 µM (inactive)
GI50 [31]: 43.5 µM (inactive)
GI50 [32]: 37.8 µM (inactive)
GI50 [33]: > 100 µM (inactive)
GI50 [54]: > 100 µM (inactive)
GI50 [34]: > 100 µM (inactive)
GI50 [35]: 24.9 µM (inactive)
GI50 [36]: > 100 µM (inactive)
GI50 [37]: > 100 µM (inactive)
GI50 [38]: 35.6 µM (inactive)
GI50 [39]: > 100 µM (inactive)
GI50 [40]: 45.5 µM (inactive)
GI50 [41]: > 100 µM (inactive)
GI50 [55]: > 100 µM (inactive)
GI50 [42]: > 100 µM (inactive)
GI50 [56]: 87.1 µM (inactive)
GI50 [43]: > 100 µM (inactive)
GI50 [44]: > 100 µM (inactive)
GI50 [57]: 41.4 µM (inactive)
GI50 [45]: 86.1 µM (inactive)
GI50 [46]: > 100 µM (inactive)
GI50 [47]: 38.5 µM (inactive)
GI50 [48]: > 100 µM (inactive)
GI50 [49]: 74.6 µM (inactive)
GI50 [50]: > 100 µM (inactive)
GI50 [58]: > 100 µM (inactive)
GI50 [51]: 4.74 µM (inactive)

O=C(O)CO[C@@]12C#C/C=C\C#C[C@@H]3N(C(=O)Oc4ccccc4)c4ccccc4[C@]14O[C@@]34CCC2
GI50 [1]: 26.9 µM (inactive)
GI50 [2]: 59.3 µM (inactive)
GI50 [3]: > 100 µM (inactive)
GI50 [4]: 85.9 µM (inactive)
GI50 [5]: 30.1 µM (inactive)
GI50 [6]: 38.7 µM (inactive)
GI50 [7]: 29.7 µM (inactive)
GI50 [52]: 20 µM (inactive)
GI50 [8]: 43.3 µM (inactive)
GI50 [53]: > 100 µM (inactive)
GI50 [9]: 12.5 µM (inactive)
GI50 [10]: 33.4 µM (inactive)
GI50 [11]: 8.55 µM
GI50 [12]: 26.5 µM (inactive)
GI50 [13]: 83.8 µM (inactive)
GI50 [14]: 57.4 µM (inactive)
GI50 [15]: 45.4 µM (inactive)
GI50 [16]: 19.4 µM (inactive)
GI50 [17]: 27.2 µM (inactive)
GI50 [18]: 23.7 µM (inactive)
GI50 [19]: 17.6 µM (inactive)
GI50 [20]: 40.5 µM (inactive)
GI50 [21]: 41.1 µM (inactive)
GI50 [22]: 14.6 µM (inactive)
GI50 [23]: 12.9 µM (inactive)
GI50 [24]: 1.53 µM (inactive)
GI50 [25]: 14.9 µM (inactive)
GI50 [26]: 28.8 µM (inactive)
GI50 [28]: 71.9 µM (inactive)
GI50 [29]: 53.5 µM (inactive)
GI50 [30]: 36.4 µM (inactive)
GI50 [31]: 33.5 µM (inactive)
GI50 [32]: 31.6 µM (inactive)
GI50 [33]: 47.1 µM (inactive)
GI50 [54]: 56.1 µM (inactive)
GI50 [35]: 44.6 µM (inactive)
GI50 [36]: 26.2 µM (inactive)
GI50 [37]: 31.6 µM (inactive)
GI50 [38]: 14.3 µM (inactive)
GI50 [39]: > 10 µM (inactive)
GI50 [40]: 31.4 µM (inactive)
GI50 [41]: 52.8 µM (inactive)
GI50 [55]: 16.2 µM (inactive)
GI50 [42]: 28 µM (inactive)
GI50 [56]: 6.75 µM (inactive)
GI50 [43]: 30.5 µM (inactive)
GI50 [44]: 37 µM (inactive)
GI50 [45]: 55.2 µM (inactive)
GI50 [46]: 47.6 µM (inactive)
GI50 [47]: 10.3 µM (inactive)
GI50 [48]: > 100 µM (inactive)
GI50 [49]: 19.1 µM (inactive)
GI50 [50]: 55.7 µM (inactive)
GI50 [58]: 11.5 µM (inactive)
GI50 [51]: 24.1 µM (inactive)

COc1ccc(Cc2nc3cc(Cl)ccc3o2)cc1
GI50 [1]: 33.3 µM (inactive)
GI50 [3]: 35.4 µM (inactive)
GI50 [4]: 59 µM (inactive)
GI50 [5]: 19.4 µM (inactive)
GI50 [6]: 31 µM (inactive)
GI50 [7]: 12.2 µM (inactive)
GI50 [52]: 28.4 µM (inactive)
GI50 [8]: 38.8 µM (inactive)
GI50 [53]: 27.2 µM (inactive)
GI50 [9]: 20.8 µM (inactive)
GI50 [10]: 36.5 µM (inactive)
GI50 [11]: 26.9 µM
GI50 [12]: 28.4 µM (inactive)
GI50 [13]: > 100 µM (inactive)
GI50 [14]: 41.2 µM (inactive)
GI50 [15]: 30.1 µM (inactive)
GI50 [16]: 49.2 µM (inactive)
GI50 [17]: 63 µM (inactive)
GI50 [18]: 34.4 µM (inactive)
GI50 [19]: 27.7 µM (inactive)
GI50 [20]: 23.5 µM (inactive)
GI50 [21]: 32.2 µM (inactive)
GI50 [22]: 27.9 µM (inactive)
GI50 [23]: 30.8 µM (inactive)
GI50 [24]: 22.1 µM (inactive)
GI50 [25]: 35 µM (inactive)
GI50 [26]: 18.8 µM (inactive)
GI50 [27]: 26.7 µM (inactive)
GI50 [28]: 21.5 µM (inactive)
GI50 [29]: 29.2 µM (inactive)
GI50 [30]: 31.2 µM (inactive)
GI50 [31]: 21.2 µM (inactive)
GI50 [32]: 24.2 µM (inactive)
GI50 [33]: 27 µM (inactive)
GI50 [54]: 18.8 µM (inactive)
GI50 [34]: 50.6 µM (inactive)
GI50 [35]: 40.8 µM (inactive)
GI50 [36]: 32.3 µM (inactive)
GI50 [37]: 21.3 µM (inactive)
GI50 [59]: 22.6 µM (inactive)
GI50 [38]: 45.4 µM (inactive)
GI50 [39]: 31.3 µM (inactive)
GI50 [40]: 45.1 µM (inactive)
GI50 [41]: 37.2 µM (inactive)
GI50 [55]: 23.3 µM (inactive)
GI50 [42]: 14.5 µM (inactive)
GI50 [56]: 47.3 µM (inactive)
GI50 [43]: 54.5 µM (inactive)
GI50 [44]: 42.2 µM (inactive)
GI50 [57]: 13.1 µM (inactive)
GI50 [45]: 23.7 µM (inactive)
GI50 [46]: 35.5 µM (inactive)
GI50 [47]: 21.3 µM (inactive)
GI50 [48]: 35.7 µM (inactive)
GI50 [49]: 27.1 µM (inactive)
GI50 [50]: 24 µM (inactive)
GI50 [58]: 60 µM (inactive)
GI50 [51]: 33.3 µM (inactive)
